Structures can show the parent of a compound that is named as a salt.
How the values were obtained:
[1] = biological target: T1, DHP Site of the Calcium Channel (Oryctolagus cuniculus, UniProt P07293); test: Binding Assay for Drugs Acting at the DHP Site of the Calcium Channel (3H-nitrendipine displacement); conditions: washed rabbit skeletal muscle membranes, 0.5×10^-9 M 3H-nitrendipine, 30 min, 25° C., pH 7.4
T1 construct: Washed rabbit skeletal muscle membranes (fraction 2-8X); from tissue; host or cells: rabbit skeletal muscle membranes (fraction 2-8X)
Protocol: The incubation tubes were rapidly chilled in ice and the contents filtered through Whatman GF/B filters on a Millipore manifold, and the filters were placed in scintillation counting vials with 8 ml of Cytoscint cocktail, disrupted mechanically by shaking for 30 minutes and counted.
Drugs which interact at the DHP site will reduce this specific binding in a dose-dependent manner. The assays for the compounds of this invention were made with logarithmically spaced concentrations, the data were plotted on a probit-concentration plot, and the IC50 read off. The KI of the drug was calculated by standard techniques.

[2] = tested on: Systolic arterial blood pressure; test: Hypotensive Activity (oral), indirect tail cuff method in spontaneous hypertensive rats (SHR); assay type: in vivo, spontaneous hypertensive rates (SHR); conditions: 10 mmol/Kg in polyethylene glycol
Protocol: Systolic arterial blood pressure was measured with the indirect tail cuff method in spontaneous hypertensive rates (SHR). The change in baseline pressure (170-210 mm Hg) was recorded at various time points following oral administration of 10 mmol/Kg of the test compound in polyethylene glycol.

[3] = Water solubility of salt (dissolution in aqueous NaOH, freeze-dried); assay type: physicochemical
Protocol: A suspension of 50 mg (0.099 mmol) of the product of Example 2C in 30 ml of water and 1.0 ml (0.099 ) of 0.1N NaOH was stirred at ambient temperature for 15 hours.
All material was dissolved at this time. The mixture was freeze-dried to give 50 mg (quantitative yield) of a foamy water soluble solid: m.p. 215°-220° C.
A suspension of 50 mg (0.076 mmol) of the product of Example 6 in 30 ml of water and 1.52 ml (0.152 mmol) of 0.1N NaOH was stirred at ambient temperature for 15 hours. The material was totally dissolved at this time. The mixture was freeze dried to give 50 mg (quantitative yield) of a foamy water-soluble solid: m.p. 225°-232° C.

T1 sequence (P07293 1-1664 limits assumed): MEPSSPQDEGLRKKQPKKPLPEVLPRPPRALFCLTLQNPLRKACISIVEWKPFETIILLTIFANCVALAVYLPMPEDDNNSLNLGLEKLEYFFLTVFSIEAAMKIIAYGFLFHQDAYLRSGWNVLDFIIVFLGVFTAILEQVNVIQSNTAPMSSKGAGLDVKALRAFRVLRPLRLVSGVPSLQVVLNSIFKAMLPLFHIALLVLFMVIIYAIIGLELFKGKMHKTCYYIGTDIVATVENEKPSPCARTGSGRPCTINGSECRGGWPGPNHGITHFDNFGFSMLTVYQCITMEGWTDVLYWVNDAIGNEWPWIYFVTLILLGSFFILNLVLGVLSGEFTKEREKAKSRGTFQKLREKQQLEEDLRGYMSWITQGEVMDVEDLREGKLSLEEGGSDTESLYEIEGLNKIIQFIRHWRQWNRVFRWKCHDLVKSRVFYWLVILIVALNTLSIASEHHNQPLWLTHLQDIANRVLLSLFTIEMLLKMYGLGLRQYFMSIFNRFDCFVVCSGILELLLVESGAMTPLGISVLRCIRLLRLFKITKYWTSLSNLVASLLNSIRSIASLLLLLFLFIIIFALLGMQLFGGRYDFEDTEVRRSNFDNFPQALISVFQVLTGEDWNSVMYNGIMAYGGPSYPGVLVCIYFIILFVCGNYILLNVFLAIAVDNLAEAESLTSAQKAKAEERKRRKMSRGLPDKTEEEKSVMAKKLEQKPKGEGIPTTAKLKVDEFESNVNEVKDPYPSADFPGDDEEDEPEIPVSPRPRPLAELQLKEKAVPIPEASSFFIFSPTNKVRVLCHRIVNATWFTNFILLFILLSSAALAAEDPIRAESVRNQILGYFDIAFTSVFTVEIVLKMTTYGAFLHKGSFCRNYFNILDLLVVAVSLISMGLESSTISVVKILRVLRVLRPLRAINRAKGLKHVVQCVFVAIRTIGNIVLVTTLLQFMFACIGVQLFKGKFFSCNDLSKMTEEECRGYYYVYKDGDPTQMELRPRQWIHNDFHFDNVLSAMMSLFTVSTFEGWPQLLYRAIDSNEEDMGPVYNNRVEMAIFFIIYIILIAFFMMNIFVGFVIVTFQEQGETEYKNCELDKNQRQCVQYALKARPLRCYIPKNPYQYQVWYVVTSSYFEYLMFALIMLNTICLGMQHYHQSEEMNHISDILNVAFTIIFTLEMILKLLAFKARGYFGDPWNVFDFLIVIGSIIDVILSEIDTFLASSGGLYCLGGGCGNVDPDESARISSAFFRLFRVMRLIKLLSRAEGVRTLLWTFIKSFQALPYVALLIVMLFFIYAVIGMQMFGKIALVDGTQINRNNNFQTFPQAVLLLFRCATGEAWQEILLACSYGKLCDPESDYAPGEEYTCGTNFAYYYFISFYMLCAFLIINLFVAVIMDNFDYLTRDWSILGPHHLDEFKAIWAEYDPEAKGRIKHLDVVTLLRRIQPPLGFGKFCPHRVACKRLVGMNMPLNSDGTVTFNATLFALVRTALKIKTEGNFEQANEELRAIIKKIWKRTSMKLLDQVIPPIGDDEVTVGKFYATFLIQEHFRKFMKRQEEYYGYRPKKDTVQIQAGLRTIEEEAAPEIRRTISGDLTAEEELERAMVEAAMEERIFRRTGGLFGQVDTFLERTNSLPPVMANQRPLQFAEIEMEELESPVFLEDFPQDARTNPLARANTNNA
T1 sequence (P13806 27-960 partner limits assumed): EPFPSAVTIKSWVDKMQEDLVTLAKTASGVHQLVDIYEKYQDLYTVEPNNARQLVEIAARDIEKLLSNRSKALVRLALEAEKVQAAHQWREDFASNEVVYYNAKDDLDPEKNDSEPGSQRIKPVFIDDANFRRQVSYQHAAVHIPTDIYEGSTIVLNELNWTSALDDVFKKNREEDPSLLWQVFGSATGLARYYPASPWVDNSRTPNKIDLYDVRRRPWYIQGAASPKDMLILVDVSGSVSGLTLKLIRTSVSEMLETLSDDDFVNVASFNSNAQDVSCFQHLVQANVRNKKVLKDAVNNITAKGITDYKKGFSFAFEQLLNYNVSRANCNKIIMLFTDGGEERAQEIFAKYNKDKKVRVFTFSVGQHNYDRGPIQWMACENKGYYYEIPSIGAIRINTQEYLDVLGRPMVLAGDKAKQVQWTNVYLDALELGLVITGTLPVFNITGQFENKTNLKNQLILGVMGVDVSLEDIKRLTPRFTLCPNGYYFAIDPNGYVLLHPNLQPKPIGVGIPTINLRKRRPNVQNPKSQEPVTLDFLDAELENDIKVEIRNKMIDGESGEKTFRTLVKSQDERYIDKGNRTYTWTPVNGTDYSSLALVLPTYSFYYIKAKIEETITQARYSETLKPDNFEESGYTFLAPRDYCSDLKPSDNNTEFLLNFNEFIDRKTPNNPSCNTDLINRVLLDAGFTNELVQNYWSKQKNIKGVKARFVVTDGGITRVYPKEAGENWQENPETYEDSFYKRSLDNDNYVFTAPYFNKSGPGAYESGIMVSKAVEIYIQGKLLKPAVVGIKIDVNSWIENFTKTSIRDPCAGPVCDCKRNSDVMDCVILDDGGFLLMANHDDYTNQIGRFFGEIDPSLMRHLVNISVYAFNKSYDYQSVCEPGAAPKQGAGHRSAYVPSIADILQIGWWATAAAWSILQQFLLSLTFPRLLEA
T1 sequence (P13806 961-1106 partner limits assumed): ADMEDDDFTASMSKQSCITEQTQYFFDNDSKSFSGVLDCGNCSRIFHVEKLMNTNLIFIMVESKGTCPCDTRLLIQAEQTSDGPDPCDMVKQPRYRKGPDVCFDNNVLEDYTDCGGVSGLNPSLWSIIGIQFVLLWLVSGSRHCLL
T1 sequence (P19517 whole entry partner): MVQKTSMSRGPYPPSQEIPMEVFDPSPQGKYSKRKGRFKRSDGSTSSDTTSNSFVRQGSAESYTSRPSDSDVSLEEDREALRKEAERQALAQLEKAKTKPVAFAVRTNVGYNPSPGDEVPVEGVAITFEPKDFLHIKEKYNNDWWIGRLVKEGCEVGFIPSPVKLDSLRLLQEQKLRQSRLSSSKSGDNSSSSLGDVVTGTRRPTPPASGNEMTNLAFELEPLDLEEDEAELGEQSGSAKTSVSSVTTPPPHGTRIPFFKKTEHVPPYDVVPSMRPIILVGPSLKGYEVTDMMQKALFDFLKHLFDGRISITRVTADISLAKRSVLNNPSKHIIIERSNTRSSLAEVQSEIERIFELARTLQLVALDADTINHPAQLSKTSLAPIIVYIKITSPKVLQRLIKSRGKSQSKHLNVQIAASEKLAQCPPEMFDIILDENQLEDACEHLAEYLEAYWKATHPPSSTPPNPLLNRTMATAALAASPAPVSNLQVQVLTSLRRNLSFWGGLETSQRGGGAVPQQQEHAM
T1 sequence (P19518 whole entry partner): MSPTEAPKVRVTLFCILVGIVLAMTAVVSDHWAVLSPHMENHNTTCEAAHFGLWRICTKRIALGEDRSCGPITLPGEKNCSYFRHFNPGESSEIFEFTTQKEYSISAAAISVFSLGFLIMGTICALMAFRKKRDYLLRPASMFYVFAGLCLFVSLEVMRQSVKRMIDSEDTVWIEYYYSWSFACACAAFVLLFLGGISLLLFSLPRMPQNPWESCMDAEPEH

SMILES | Ki [1] [nM] | Mean Change (Decrease) in Systolic Blood Pressure, 120 min after drug administration [2] [mm Hg] | Mean Change (Decrease) in Systolic Blood Pressure, 240 min after drug administration [2] [mm Hg] | Mean Change (Decrease) in Systolic Blood Pressure, 360 min after drug administration [2] [mm Hg] | Mean Change (Decrease) in Systolic Blood Pressure, 12 min after drug administration [2] [mm Hg] | Mean Change (Decrease) in Systolic Blood Pressure, 30 min after drug administration [2] [mm Hg] | Mean Change (Decrease) in Systolic Blood Pressure, 60 min after drug administration [2] [mm Hg] | solubility in water (in words) [3]
COC(=O)C1=C(C)NC(C)=C(C(=O)OCC2COC(C)(C)O2)C1c1cccc([N+](=O)[O-])c1 (stereo not drawn) [Example 1B, 2,6-Dimethyl-3-(2,2-dimethyl-1,3-dioxolan-4-carbomethoxy)-4-(3-nitrophenyl)-5-carbomethoxy-1,4 dihydropyridine] | 4.5 | 36 | 34 | 19 | – | – | – | –
COC(=O)C1=C(C)NC(C)=C(C(=O)OCC2OC(=O)C3OC(C)(C)OC23)C1c1cccc([N+](=O)[O-])c1 (stereo not drawn) [Example 2C, 2,6-Dimethyl-3-(carboriboxy-gamma-lactone dimethylketal)-4-(3-nitrophenyl)-5-carbomethoxy-1,4-dihydropyridine] | 30 | 29 | 22 | 20 | 40 | 37 | 31 | –
COC(=O)C1=C(C)NC(C)=C(C(=O)OCC(O)CO)C1c1cccc([N+](=O)[O-])c1 (stereo not drawn) [Example 4, 2,6-Dimethyl-5-carbomethoxy-4-(3-nitrophenyl)-3-(2,3 dihydroxycarbopropoxy)-1,4-dihydropyridine] | 140 | 12 | 6 | 4 | 13 | 16 | 18 | –
COC(=O)C1=C(C)NC(C)=C(C(=O)OCC2COC3(CCCC3)O2)C1c1cccc([N+](=O)[O-])c1 (stereo not drawn) [Example 4B, 2,6-Dimethyl-5-carbomethoxy-4-(3-nitrophenyl)-3-(1,4-dioxaspiro[4,4]non-2-yl-carbomethoxy)-1,4-dihydropyridine] | 2.3 | 17 | 23 | 27 | – | – | – | –
CC1=C(C(=O)OCC2COC(C)(C)O2)C(c2cccc([N+](=O)[O-])c2)C(C(=O)OCC2COC(C)(C)O2)=C(C)N1 (stereo not drawn) [Example 5, 2,6-Dimethyl-3,5-di-(2,2-dimethyl-1,3-dioxolan-4-carbomethoxy)-4-(3-nitrophenyl)-1,4-dihydropyridine] | 29 | 17 | 19 | 19 | 17 | 19 | 13 | –
CC1=C(C(=O)OCC2OC(=O)C3OC(C)(C)OC23)C(c2cccc([N+](=O)[O-])c2)C(C(=O)OCC2OC(=O)C3OC(C)(C)OC23)=C(C)N1 (stereo not drawn) [Example 6, 2,6-Dimethyl-3,5-di(carboriboxy-gamma-lactone dimethylketal)-4-(3-nitrophenyl)-1,4-dihydropyridine] | 93 | – | – | – | – | – | – | –
COC(=O)C1=C(C)NC(C)=C(C(=O)OCC(O)C2OC(C)(C)OC2C(=O)O)C1c1cccc([N+](=O)[O-])c1 (stereo not drawn) [Example 11, 2,6-Dimethyl-3-(carboribonic acid-gamma-lactone dimethylketal)(3-nitrophenyl)-5-(carbomethoxy)-1,4-dihydropyridine, sodium salt] | – | – | – | – | – | – | – | water soluble
CC1=C(C(=O)OCC(O)C2OC(C)(C)OC2C(=O)O)C(c2cccc([N+](=O)[O-])c2)C(C(=O)OCC(O)C2OC(C)(C)OC2C(=O)O)=C(C)N1 (stereo not drawn) [Example 13, 2,6-Dimethyl-3,5-di-(carboribonic acid-gamma-lactone dimethylketal)-4-(3-nitrophenyl-1,4-dihydropyridine, disodium salt] | – | – | – | – | – | – | – | water-soluble
COC(=O)C1=C(C)NC(C)=C(C(=O)OC)C1c1ccccc1[N+](=O)[O-] [Nifedipine, nifedipine, reference compound] | – | 11 | – | – | 6 | 36 | 20 | –
